From US20060140957A1, “Eph/ephrin mediated modulation of cell adhesion and tumour cell metastasis” (priority 2003, published 2006)

What was measured:
EphA3/HEK 293 cells [1] = test: Cleavage and internalisation of Alexa-labelled protein from protein A Dynabeads; type: cell-based, human; settings: 5 mM, 4 h prior to bead addition
Procedure: (§1) FIG. 6. Eph/ephrin mediated cell-cell repulsion, but not adhesion leads to ephrinA5 cleavage by a metalloprotease. • (A) Alexa ephrinA5-Fc (I, III) or Alexa EphA1 Fc (II) control proteins, conjugated onto protein A-coated Dynabeads were added to cultures of EphA3/HEK 293 cells (I, II) or LK63 cells (III). Cleavage and internalisation of the fluorescent proteins was monitored by confocal microscopy. Selected images of confocal time-lapse experiments (1 frame/min) are shown. Alexa 546 fluorescence is represented in white and outlines cells in panels I, while the cells in panels II, III appear dark-grey or black. • (B) Prior to stimulation (30 min) with Alexa ephrinA5-Fc coated beads (I, II) or with Alexa Fc control beads (III), parallel cultures of EphA3/293 cells were treated for 4 h with 5 mM 1′,10′-O-Phenanthroline (II) or left untreated (I, III). […] Using an EphA3-Fc construct, ephrin-A5 was immuno precipitated from lysates of EphA3/HEK 293 cells or LK63 cells, which had been treated for indicated times with 7.5 ì g/ml of pre-clustered (+X-lnk) or non-clustered (−X-lnk) ephrin-A5 Fc, and analysed for ephrin cleavage by Western blot with anti-ephrinA5 antibody. […]
Eph/ephrin stimulation was analysed in-situ by time-lapse confocal microscopy and immunocytochemistry as described (Lawrenson et al., 2002). […]

EphA3/HEK 293 cells [2] = test: Biochemical demonstration of ephrin cleavage (Western blot); type: cell-based, human; settings: cells stimulated with clustered ephrin-A5 Fc
Procedure: as §1, with “antibody. To assess cleavage by metalloproteases, parallel cultures were treated with 1′,10′-O-phenanthroline (+OPN) or left untreated.” for “antibody.”

[3] = tested on: HEK293 cells expressing 3YF EphA3GFP; test: FLIM/FRET of EphA3 phosphorylation after phosphatase inhibition; type: cell-based, human; settings: 30 min, high concentrations
Procedure: (§2) FIG. 7. Pervanadate-induced Eph receptor phosphorylation HEK293 cells, expressing w/t EphA3GFP (A) or 3YF EphA3GFP (B) were incubated with pervanadate (30 min) at indicated concentrations. Fixed cells were examined for FRET as described above. Left, GFP-fluorescence; right, GFP fluorescence lifetime phase maps. Tabulated colour codes indicate GFP lifetimes in ns.
(§3) GFP EphA3 (w/t or mutant) expressing cells were stimulated, fixed, permeabilised and stained with Cy3-conjugated anti phosphotyrosine monoclonal antibody PY72 prior to mounting onto glass slides using Mowiol (Calbiochem). Fluorescence lifetime imaging microscopy (FLIM) sequences were obtained at 80 MHz with an Olympus IX70 microscope (100/1.4 NA oil immersion lens) and analysed as described (Reynolds, Tischer et al. 2003). A 476-nm argon laser line and narrow-band emission filter (HQ510/20; Chroma) were used for GFP, a 100-W mercury arc lamp with high Q Cy3 filter set (excite, HQ545/30; dicroic, Q580LP; emitter, HQ610/75) for Cy3 and Alexa 546. GFP Fluorescence was detected with a dichroic beamsplitter (Q495 LP; Chroma Technology, Brattleboro, Vt.) and narrow-band emission filter. Stimulated FRET was measured in live 293 cells between transiently expressed ephrin-A2GFP and Alexa546 EphA3-Fc.

[4] = tested on: HEK293 cells expressing w/t EphA3GFP; test: as above; type: cell-based, human; settings: 30 min, increasing concentrations
Procedure: as §2, §3

LK63 leukaemia cells = test: Phosphatase inhibition, anti-EphA3 IP / anti-phosphotyrosine western blot; type: cell-based, human; settings: highest concentration tested (1 mM)
Procedure: (§4) FIG. 8. Phosphatase inhibition triggers EphA3 phosphorylation in LK63 cells • (A) Anti-EphA3 immunoprecipitates from TritonX100 lysates of EphA3/HEK 293, EphA3/AO2 melanoma cells and LK63 leukaemia cells were treated with either crosslinked ephrin-A5 or increasing concentrations of sodium pervanadate as indicated, and analysed by anti-phosphotyrosine western blot. • (B) Anti-EphA3 immunoprecipitates from TritonX100 lysates of vanadate or hydrogen peroxide-treated EphA3/HEK 293 (left panel) and EphA3/AO2 melanoma cells(right panel) were analysed as described in (A).

EphA3/HEK 293 cells [5] = test: as above; type: cell-based, human; settings: increasing amounts
Procedure: as §4

[6] = tested on: EphA3/A02 malignant melanoma cells; test: as above; type: cell-based; settings: increasing amounts
Procedure: as §4

LK63 cells = test: Cell morphology on ephrinA5-Fc coated glass coverslips (rhodamin-phalloidin); type: cell-based, human; settings: 4 h
Procedure: FIG. 1. Surface-bound ephrinA5 causes either cell repulsion or cell adhesion of EphA3-positive tumour cells. • (A) EphA3-positive LK63 human pre-B leukemia cells and LiBr melanoma cells were plated onto glass coverslips coated with ephrinA5-Fc (ephrin, 10 μg/ml) or fibronectin (FN, 10 μg/ml). After 4h the cytoskeleton of adherent, fixed cells was stained with rhodamin-phalloidin. Pictures of representative fluorescence images are shown; the second column represents magnified sections of the first. Scale bar: 20 ì m. • (B) LK63 adhesion and LiBr de-adhesion to surface-bound ephrinA5 are dose-dependent. […] After 4-hour incubation, adherent cells, withstanding rigorous washing, were quantitated by XTT assay (A492 absorbance). Cell attachment is expressed as a percentage (mean, S.E. from three independent assays) relative to wells containing most adherent cells; ( ), LK63 and ( ), LiBr cells and ( ), LK63, ( ), LiBr cells with ephrin inhibition (+inh.). • (C) LiBr melanoma cells in matrigel-coated Basement Membrane migration chambers (Becton Dickinson, 5×10^4/well) were exposed to chemoattractant, 3T3 conditioned media (cond. media) or 1.5 ì g/ml pre-clustered ephrin-A5 Fc in the bottom chamber, or with 1.5 ì g/mil pre-clustered ephrin-A5 Fc placed together with cells into the top chamber. […]

Compound: c1cnc2c(c1)ccc1cccnc12 [1′,10′-O-Phenanthroline]
- effect on ephrin cleavage and internalisation from Alexa ephrin-A5-Fc beads (EphA3/HEK 293 cells [1]): completely abrogated ephrin cleavage and internalisation
- effect on ephrin cleavage (anti-ephrinA5 Western blot) (EphA3/HEK 293 cells [2]): significantly-reduced ephrin cleavage

Compound: sodium-pervanadate
- GFP fluorescent lifetime (receptor phosphorylation) [3]: retained their GFP lifetime
- GFP fluorescent lifetime (receptor phosphorylation) [4]: dramatic dose-dependent decrease in the GFP fluorescent lifetime
- EphA3 phosphorylation compared with EphA3/HEK 293 and EphA3/A02 cells (LK63 leukaemia cells): significantly lower
- EphA3 phosphorylation (EphA3/HEK 293 cells [5]): dose dependent increase in EphA3 phosphorylation
- EphA3 phosphorylation [6]: dose dependent increase in EphA3 phosphorylation
- LK63 morphology on ephrin-coated coverslips under phosphatase inhibition (LK63 cells): lose their characteristic extensions and appear rounded

Compound: OO [H2O2, hydrogen peroxide]
- EphA3 phosphorylation (EphA3/HEK 293 cells [5]): dose dependent increase in EphA3 phosphorylation
- EphA3 phosphorylation [6]: dose dependent increase in EphA3 phosphorylation
